ChEMBL document CHEMBL5104218, “Effects of 6-Aminonicotinic Acid Esters on the Reprogrammed Epigenetic State of Distant Metastatic Pancreatic Carcinoma” (ACS Med Chem Lett, 2022)
pIC50, pKi: −log10 of the molar value. Values belong to the molecule of their own block, whether it stands above or below them. Calls of active or inactive are those of the source. No cut-off for these calls is given here.

Columns and labels:
[1] = target: T1, 6-phosphogluconate dehydrogenase, decarboxylating (Homo sapiens) (UniProt P52209); experiment: Inhibition of 6PGD in human A38-5 cells assessed as increase in intracellular H3K9me3 level at 0.1 to 1000 uM incubated for 45 mins by HTRF assay; format: cell-based; details: dose 0.1-1000 µM
T1 sequence (whole entry): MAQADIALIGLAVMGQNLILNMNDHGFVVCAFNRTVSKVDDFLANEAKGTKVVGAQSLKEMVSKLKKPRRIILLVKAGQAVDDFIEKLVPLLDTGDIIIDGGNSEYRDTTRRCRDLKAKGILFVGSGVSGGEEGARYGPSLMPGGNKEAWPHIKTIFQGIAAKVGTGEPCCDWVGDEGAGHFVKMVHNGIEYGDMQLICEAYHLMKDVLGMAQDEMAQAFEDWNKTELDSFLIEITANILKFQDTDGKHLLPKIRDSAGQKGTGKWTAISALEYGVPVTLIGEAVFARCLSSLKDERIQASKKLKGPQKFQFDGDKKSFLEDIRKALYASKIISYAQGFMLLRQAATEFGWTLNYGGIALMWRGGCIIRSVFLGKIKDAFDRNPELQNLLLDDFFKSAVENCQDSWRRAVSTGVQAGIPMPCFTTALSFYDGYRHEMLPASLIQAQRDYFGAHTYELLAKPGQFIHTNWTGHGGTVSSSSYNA

[2] = target: Glucose-6-phosphate 1-dehydrogenase (Homo sapiens) (UniProt P11413); experiment: Inhibition of G6PD in human A38-5 cells assessed as fold increase in G6P level at 15.6 uM incubated for 72 hrs by mass spectrometry; format: cell-based
[3] = target: T1, 6-phosphogluconate dehydrogenase, decarboxylating (Homo sapiens); experiment: Inhibition of 6PGD in human A38-5 cells assessed as increase in intracellular H3K9me3 expression level at 1 to 250 uM incubated for 72 hrs by western blot analysis; format: cell-based; details: dose 1-250 µM
A38-5 = experiment: Cytotoxicity against human A38-5 cells assessed as reduction in cell viability at 0.06 to 250 uM incubated for 72 hrs by CellTiter-Glo assay relative to 6AN; format: functional, cell-based; details: dose 0.06-250 µM
[4] = Neurotoxicity against Sprague-Dawley rat Primary hippocampal neuron assessed as increase in TUNEL positive cells at 5 uM incubated for 24 hrs by TUNEL staining based microscopy; format: toxicity, cell-based; details: hippocampal neurone
[5] = target: T1, 6-phosphogluconate dehydrogenase, decarboxylating (Homo sapiens); experiment: Inhibition of 6PGD in human A38-5 cells assessed as increase in Ru-5-P level at 15.6 uM incubated for 72 hrs by mass spectrometry; format: cell-based
[6] = target: T1, 6-phosphogluconate dehydrogenase, decarboxylating (Homo sapiens); experiment: Inhibition of 6PGD in human A38-5 cells assessed as fold increase in 6PG level at 15.6 uM incubated for 72 hrs by mass spectrometry; format: cell-based
[7] = target: T1, 6-phosphogluconate dehydrogenase, decarboxylating (Homo sapiens); experiment: Inhibition of 6PGD in human A38-5 cells assessed as increase in intracellular H3K9me3 level at 1 uM incubated for 45 mins by HTRF assay; format: cell-based
[8] = Neurotoxicity against Sprague-Dawley rat Primary hippocampal neuron assessed as increase in TUNEL positive cells at 50 uM incubated for 24 hrs by TUNEL staining based microscopy; format: toxicity, cell-based; details: hippocampal neurone
[9] = target: Glucose-6-phosphate 1-dehydrogenase (Homo sapiens) (UniProt P11413); experiment: Inhibition of G6PD in human A38-5 cells assessed as fold increase in G6P level at 250 uM incubated for 72 hrs by mass spectrometry; format: cell-based
[10] = target: T1, 6-phosphogluconate dehydrogenase, decarboxylating (Homo sapiens); experiment: Inhibition of 6PGD in human A38-5 cells assessed as increase in Ru-5-P level at 250 uM incubated for 72 hrs by mass spectrometry; format: cell-based
[11] = target: T1, 6-phosphogluconate dehydrogenase, decarboxylating (Homo sapiens); experiment: Inhibition of 6PGD in human A38-5 cells assessed as fold increase in intracellular H3K9me3 level at 250 uM incubated for 45 mins by HTRF assay; format: cell-based
[12] = target: T1, 6-phosphogluconate dehydrogenase, decarboxylating (Homo sapiens); experiment: Inhibition of 6PGD in human A38-5 cells assessed as fold increase in 6PG level at 250 uM incubated for 72 hrs by mass spectrometry; format: cell-based
Glutathione reductase = target: T2, Glutathione reductase (Rattus norvegicus, UniProt P70619); experiment: Inhibition of rat glutathione reductase by spectrophotometric method
T2 sequence (P70619 whole entry): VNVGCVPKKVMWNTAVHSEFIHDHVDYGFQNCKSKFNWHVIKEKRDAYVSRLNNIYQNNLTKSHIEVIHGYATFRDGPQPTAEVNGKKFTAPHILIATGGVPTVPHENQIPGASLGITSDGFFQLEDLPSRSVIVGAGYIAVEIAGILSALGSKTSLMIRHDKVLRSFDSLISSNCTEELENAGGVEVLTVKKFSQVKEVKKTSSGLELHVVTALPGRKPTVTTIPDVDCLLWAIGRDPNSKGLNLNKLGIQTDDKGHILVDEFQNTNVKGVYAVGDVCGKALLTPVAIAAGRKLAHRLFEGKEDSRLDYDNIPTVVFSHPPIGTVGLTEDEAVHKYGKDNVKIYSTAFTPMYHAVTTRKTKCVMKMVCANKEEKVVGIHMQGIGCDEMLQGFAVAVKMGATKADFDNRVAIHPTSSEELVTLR

[13] = target: T3, 6-phosphogluconate dehydrogenase, decarboxylating (Rattus norvegicus, UniProt P85968); experiment: Inhibition of rat 6PGD by spectrophotometric method
T3 sequence (P85968 whole entry): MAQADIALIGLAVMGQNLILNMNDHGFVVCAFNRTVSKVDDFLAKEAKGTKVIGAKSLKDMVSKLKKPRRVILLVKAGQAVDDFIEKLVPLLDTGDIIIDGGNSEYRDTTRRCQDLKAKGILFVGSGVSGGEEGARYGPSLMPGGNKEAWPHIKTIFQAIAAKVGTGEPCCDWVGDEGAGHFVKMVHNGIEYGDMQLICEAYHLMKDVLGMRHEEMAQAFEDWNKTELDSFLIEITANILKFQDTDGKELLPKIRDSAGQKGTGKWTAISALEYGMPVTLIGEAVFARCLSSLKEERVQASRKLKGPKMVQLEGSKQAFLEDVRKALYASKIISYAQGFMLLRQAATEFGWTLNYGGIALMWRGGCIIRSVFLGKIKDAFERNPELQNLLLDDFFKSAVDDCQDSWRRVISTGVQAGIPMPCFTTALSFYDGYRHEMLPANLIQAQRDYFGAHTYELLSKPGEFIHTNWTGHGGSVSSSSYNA

[14] = target: Glucose-6-phosphate 1-dehydrogenase (Rattus norvegicus, UniProt P05370); experiment: Inhibition of rat G6PD by spectrophotometric method
[15] = target: T3, 6-phosphogluconate dehydrogenase, decarboxylating; experiment: Inhibition of rat 6PGD assessed as inhibition constant by spectrophotometric method

Glucose-6-phosphate 1-dehydrogenase (Homo sapiens), sequence (P11413 whole entry): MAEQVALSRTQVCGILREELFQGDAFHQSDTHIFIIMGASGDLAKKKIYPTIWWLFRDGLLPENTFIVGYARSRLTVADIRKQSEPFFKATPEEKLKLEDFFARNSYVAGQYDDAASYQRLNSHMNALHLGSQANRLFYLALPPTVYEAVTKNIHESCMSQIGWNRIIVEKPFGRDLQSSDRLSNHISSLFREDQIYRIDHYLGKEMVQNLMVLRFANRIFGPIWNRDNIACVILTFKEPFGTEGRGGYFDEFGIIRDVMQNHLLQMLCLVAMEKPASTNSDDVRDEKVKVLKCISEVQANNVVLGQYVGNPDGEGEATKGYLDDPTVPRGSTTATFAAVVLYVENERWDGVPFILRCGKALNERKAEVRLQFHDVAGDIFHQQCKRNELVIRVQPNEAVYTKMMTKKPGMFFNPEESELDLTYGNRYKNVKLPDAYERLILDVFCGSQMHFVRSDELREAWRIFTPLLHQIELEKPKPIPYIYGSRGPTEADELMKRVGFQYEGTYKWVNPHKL
Glucose-6-phosphate 1-dehydrogenase, sequence (P05370 whole entry): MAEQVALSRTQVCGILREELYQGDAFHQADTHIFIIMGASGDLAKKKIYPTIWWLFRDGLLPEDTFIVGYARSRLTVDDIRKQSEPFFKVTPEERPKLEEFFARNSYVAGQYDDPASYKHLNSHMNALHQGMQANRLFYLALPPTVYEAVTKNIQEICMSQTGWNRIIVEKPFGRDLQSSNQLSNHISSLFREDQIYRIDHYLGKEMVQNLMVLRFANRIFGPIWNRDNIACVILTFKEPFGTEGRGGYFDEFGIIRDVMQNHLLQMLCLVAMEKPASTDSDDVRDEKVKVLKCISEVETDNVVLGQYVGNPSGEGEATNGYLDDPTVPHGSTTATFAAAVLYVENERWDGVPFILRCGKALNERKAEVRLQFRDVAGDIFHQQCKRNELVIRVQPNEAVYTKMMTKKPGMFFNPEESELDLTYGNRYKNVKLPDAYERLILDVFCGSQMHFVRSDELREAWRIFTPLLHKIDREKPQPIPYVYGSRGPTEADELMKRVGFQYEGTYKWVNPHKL

activity outcome (qualitative) [1]: Active
Structure (SMILES): CC(C)C(=O)OCOC(=O)c1ccc(N)nc1

activity outcome (qualitative) [1]: Active
Structure (SMILES): CC(=O)OCOC(=O)c1ccc(N)nc1

fold change (FC) [2]: 2
inhibition [3]: Active
activity outcome (qualitative) ([1]; DDE = dose-dependent effect): Dde
inhibition [5]: Active
fold change (FC) [6]: 150
inhibition [7]: Active
Structure (SMILES): CC(OC(=O)OC1CCCCC1)OC(=O)c1ccc(N)nc1 (stereo not given)
Activity (A38-5): Active
Activity [4]: Non-Toxic
Activity [8]: Non-Toxic

activity outcome (qualitative) ([1]; DDE = dose-dependent effect): Dde
Structure (SMILES): CCOC(=O)OCOC(=O)c1ccc(N)nc1

activity outcome (qualitative) ([1]; DDE = dose-dependent effect): Dde
Structure (SMILES): CCOC(=O)OC(C)OC(=O)c1ccc(N)nc1 (stereo not given)

Structure (SMILES): NC(=O)c1ccc(N)nc1 [6-AMINONICOTINAMIDE]
fold change (FC) [9]: 2
inhibition [10]: Active
Activity [4]: Toxic
activity outcome (qualitative) ([1]; DDE = dose-dependent effect): Dde
fold change (FC) [11]: 2.5
Activity [8]: Toxic
fold change (FC) [12]: 150

pIC50 (Glutathione reductase): 4.34
pIC50 [13]: 6.70
pIC50 [14]: 4.15
pKi [15]: 7.00
Structure (SMILES): NC(=O)c1ccc(N)[n+]([C@@H]2O[C@H](COP(=O)(O)OP(=O)(O)OC[C@H]3O[C@@H](n4cnc5c(N)ncnc54)[C@H](OP(=O)(O)O)[C@@H]3O)[C@@H](O)[C@H]2O)c1

activity outcome (qualitative) [1]: Active
Structure (SMILES): CCCC(=O)OCOC(=O)c1ccc(N)nc1
